Assay results from the NIST ThermoML archive (doi:10.1016/j.fluid.2013.03.002).
Numbers after ± are expanded uncertainties.

Columns and labels:
[1] = 101.33 kPa, Liquid, Vibrating tube method
[2] = refractive index (Na D-line) (dimensionless); conditions: 101.33 kPa, Liquid, Standard Abbe refractometry

mass density ([1]; 293.15 K) | mass density ([1]; 298.15 K) | refractive index ([2]; 293.15 K) | refractive index ([2]; 298.15 K) | SMILES
773.5 ± 1 kg/m3 | 769.93 ± 1 kg/m3 | 1.4342 ± 0.0006 | 1.4326 ± 0.0006 | CCCCCCCCCCCCCCCC [hexadecane]
920.14 ± 1 kg/m3 | 915.65 ± 1 kg/m3 | 1.4225 ± 0.0005 | 1.4214 ± 0.0005 | CCCOCC(C)OCC(C)O (stereo not drawn) [1-(1-methyl-2-propoxyethoxy)-2-propanol]
